Laboratory results: patent US11766443B2, “Cyclopentathiophene carboxamide derivatives as platelet activating factor receptor antagonists” (Boehringer Ingelheim International GmbH, priority 2021, dated 2023)
In brackets after ≈: the same amount, converted by molar mass.

Tests used:
[1] = aqueous solubility in buffer (from DMSO stock, 24 h shaking, LC-UV); conditions: pH 2.2, aqueous buffer, kinetic from dmso stock
Description: (§1) The aqueous solubility of the test compound is determined by comparing the amount dissolved in buffer to the amount in an ACN/water (1/1) solution. Starting from a 10 mM DMSO stock solution aliquots are diluted with ACN/water (1/1) or buffer, respectively. After 24 h of shaking, the solutions are filtrated and analyzed by LC-UV. The amount dissolved in buffer is compared to the amount in the ACN solution.
(§2) Solubility will usually be measured from 0.001 to 0.125 mg/mL at a DMSO concentration of 2.5%. If more than 90% of the compound is dissolved in buffer, the value is marked with “>”.

[2] = molecular target: T1, human PAFR (Homo sapiens, UniProt P25105); assay: cellular HTRF IP1 endpoint assay: inhibition of PAFR activation by PAF C-16 ligand; format: cell-based; conditions: HEK293 cells overexpressing human PAFR; PAF ligand 11 nM
T1 construct: expressed in transfected cells; host or cells: HEK293
T1 sequence (P25105 whole entry): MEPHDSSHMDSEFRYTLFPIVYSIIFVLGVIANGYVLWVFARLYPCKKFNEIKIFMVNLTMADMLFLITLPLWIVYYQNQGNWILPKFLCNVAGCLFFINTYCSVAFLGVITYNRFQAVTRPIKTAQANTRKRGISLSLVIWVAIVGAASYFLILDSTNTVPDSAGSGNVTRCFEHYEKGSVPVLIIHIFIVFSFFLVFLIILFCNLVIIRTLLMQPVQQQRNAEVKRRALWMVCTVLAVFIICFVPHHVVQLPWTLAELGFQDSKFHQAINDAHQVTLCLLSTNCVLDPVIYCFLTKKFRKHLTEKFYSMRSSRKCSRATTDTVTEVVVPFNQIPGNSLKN
Summary of the method: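 HEK293 cells overexpressing human PAFR, preincubated 90 min at 37 °C with compound (1% DMSO final) in HBSS/20 mM Hepes pH 7.4, 50 mM LiCl, 0.1% BSA, then stimulated 60 min with 11 nM PAF. IP1 read by HTRF (ex 320, em 620/665 nm).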

[3] = chemical stability in acidic aqueous media (pH ca. 1.2), HPLC recovery; format: physicochemical; conditions: acetonitrile/0.1 M aqueous HCl 2:3, pH ca. 1.2, 37° C.
Description: Degradation studies are used to simulate chemical stability of compounds in the acidic part of the gastro intestinal tract. The compounds of the invention show high chemical stability in acidic aqueous media (pH value ca. 1.2) what makes their application as medical drugs to treat human diseases less restricted and troublesome.
The chemical stability of the compounds of the invention at pH value of ca. 1.2 is determined as follows: Compound is dissolved in an HPLC vial in a mixture of acetonitrile/0.1 M aqueous HCl (ratio: 2:3; pH ca. 1.2) to get a concentration of approximately 0.25 mg/ml. The vial is then transferred into an HPLC autosampler system and maintained at a temperature of 37° C. A first sample is taken and injected immediately into a standard HPLC system with a UV DAD detector. A further samples is injected after 24 hours. Amount of degraded compound is measured by determining the recovery rate of compound [%] for the 24 h injection using an HPLC standard gradient method. Therefore the peak area of the main peak for the first injection (AUt0) is determined and set as 100%. Peak area of the main peak is determined also for the 24 h injection (AU24 h) and expressed as fraction of (AU24 h)/(AUt0)[%].

[4] = physchem; conditions: pH 2.2, aqueous buffer, kinetic from dmso stock
Description: as §1, §2

Row | SMILES | solubility at 24 h [1] | IC50 [2] | Amount of degradation after 24 h [3] | solubility at 24 h [4]
1 | Cc1nnc2n1-c1sc3c(c1[C@H](c1ccccc1Cl)NC2)C[C@H](C(=O)NC1CCC1)C3 [Example 28] | > 142 µg/mL | 1.7 nM | 0.5%^ | 
2 | Cc1nnc2n1-c1sc3c(c1[C@H](c1ccccc1Cl)NC2)C[C@H](C(=O)N1CCOC(C)(C)C1)C3 [Example 26] | > 136 µg/mL | 4.9 nM | 2.5%^ | 
3 | Cc1nnc2n1-c1sc3c(c1[C@H](c1ccccc1Cl)NC2)C[C@H](C(=O)N1CCOCC1)C3 [Example 2, (9R,13S)-9-(2-Chlorophenyl)-3-methyl-13-(morpholine-4-carbonyl)-16-thia-2,4,5,8-tetraazatetracyclo[8.6.0.0^2,6.0^11,15]-hexadeca-1(10),3,5,11(15)-tetraene] | > 117 µg/mL | 30 nM | 1% | 
4 | Cc1nnc2n1-c1sc3c(c1C(c1ccccc1Cl)NC2)CC(C(=O)N1CCCC2(CC2)C1)C3 (centres unmarked) [Example 66, 13-{5-Azaspiro[2.5]octane-5-carbonyl}-9-(2-chlorophenyl)-3-methyl-16-thia-2,4,5,8-tetraazatetracyclo-[8.6.0.0^2,6.0^11,15]hexadeca-1(10),3,5,11(15)-tetraene] |  | 2.7 nM |  | > 124 µg/mL
5 | Cc1nnc2n1-c1sc3c(c1[C@H](c1ccccc1Cl)NC2)C[C@H](C(=O)NCCOC(F)(F)F)C3 [Example 17] | > 114 µg/mL | 2.8 nM | 2% | 
6 | Cc1nnc2n1-c1sc3c(c1[C@@H](c1ccccc1Cl)NC2)C[C@H](C(=O)NCc1ccc(OC(F)F)nc1)C3 [Example 11] | 105 µg/mL (≈ 189 µM) | 53 nM |  | 
7 | Cc1nnc2n1-c1sc3c(c1[C@H](c1ccccc1Cl)NC2)C[C@H](C(=O)NCc1cncnc1)C3 [Example 42] | > 121 µg/mL | 138 nM |  | 
8 | Cc1nnc2n1-c1sc3c(c1[C@H](c1ccccc1Cl)NC2)C[C@H](C(=O)N1C[C@@H](C)O[C@H](C)C1)C3 [Example 5] | 95 µg/mL (≈ 191 µM) | 8.2 nM |  | 
9 | Cc1nnc2n1-c1sc3c(c1[C@H](c1ccccc1Cl)NC2)C[C@H](C(=O)NCc1ccnc(C(F)(F)F)c1)C3 [Example 45] | > 140 µg/mL | 1.9 nM |  | 

Further lines, with some results ahead:

Row | solubility at 24 h [1] | IC50 [2] | SMILES | Amount of degradation after 24 h [3] | solubility at 24 h [4]
10 | > 111 µg/mL | 3 nM | CCCNC(=O)[C@@H]1Cc2sc3c(c2C1)[C@H](c1ccccc1Cl)NCc1nnc(C)n1-3 [Example 19] | 3% | 
11 | > 105 µg/mL | 9.1 nM | Cc1nnc2n1-c1sc3c(c1[C@H](c1ccccc1Cl)NC2)C[C@H](C(=O)N1CC2CC1C2)C3 [Example 21] | 1% | 
12 | > 119 µg/mL | 235 nM | CSc1ccccc1C1NCc2nnc(C)n2-c2sc3c(c21)C[C@H](C(=O)N1CCOCC1)C3 (mixture of isomers) [Example 79, 3-Methyl-9-[2-(methylsulfanyl)phenyl]-13-(morpholine-4-carbonyl)-16-thia-2,4,5,8-tetraazatetracyclo[8.6.0.0^2,6.0^11,15]hexadeca-1(10),3,5,11(15)-tetraene] |  | 
13 | 88 µg/mL (≈ 158 µM) | 281 nM | Cc1nnc2n1-c1sc3c(c1[C@@H](c1ccccc1Cl)NC2)C[C@H](C(=O)NCc1ccc(C(F)(F)F)cc1)C3 [Example 13] |  | 
14 | 80 µg/mL (≈ 157 µM) | 12 nM | Cc1nnc2n1-c1sc3c(c1[C@H](c1ccccc1Cl)NC2)C[C@H](C(=O)N1CC2(CCOCC2)C1)C3 [Example 30] |  | 
15 | 109 µg/mL (≈ 195 µM) | 0.4 nM | Cc1nnc2n1-c1sc3c(c1[C@H](c1ccccc1Cl)NC2)C[C@H](C(=O)NCc1ccc(C(F)(F)F)cc1)C3 [Example 14] |  | 
16 | 95 µg/mL (≈ 170 µM) | 3 nM | Cc1nnc2n1-c1sc3c(c1[C@H](c1ccccc1Cl)NC2)C[C@H](C(=O)NCc1ncccc1C(F)(F)F)C3 [Example 36] |  | 
17 | 100 µg/mL (≈ 179 µM) | 2.9 nM | Cc1nnc2n1-c1sc3c(c1[C@H](c1ccccc1Cl)NC2)C[C@H](C(=O)NCc1cc(C(F)(F)F)ccn1)C3 [Example 37] |  | 
18 | > 126 µg/mL | 2.1 nM | Cc1nnc2n1-c1sc3c(c1[C@H](c1ccccc1Cl)NC2)C[C@H](C(=O)N(C)Cc1ccccc1)C3 [Example 34] |  | 
19 | > 104 µg/mL | 110 nM | CCCc1nnc2n1-c1sc3c(c1[C@@H](c1ccccc1Cl)NC2)CC(C(=O)N1CCOCC1)C3 (stereo in doubt) [Example 80, 9-(2-Chlorophenyl)-13-(morpholine-4-carbonyl)-3-propyl-16-thia-2,4,5,8-tetraazatetracyclo[8.6.0.0^2,6.0^11,15]hexadeca-1(10),3,5,11(15)-tetraene] |  | 
